Values quoted from earlier work in patent publication US20120040927A1, “MEDICINAL ANTIFUNGAL AND STEROID CREAM INCORPORATING A BIOPOLYMER AND A PROCESS TO MAKE IT” (APEX LABORATORIES PRIVATE LIMITED, priority 2009, published 2012).
Where two headings read alike, the source gives them in different places.

How the values were obtained:
[1] = system: Trichophyton rubrum, Trichophyton mentagrophytes, Epidermophyton floccosum, Microsporum canis and Candida species including Candida albicans
[2] = not given; remark: listed apart in the source
[3] = not given; remark: listed apart in the source

In the case of `Clc1ccccc1C(c1ccccc1)(c1ccccc1)n1ccnc1` [Clotrimazole, 1-(o-Chloro-α, α-diphenylbenzyl)imidazole], the Absorption (humans, oral administration) is given as “well absorbed”, the Absorption (topical and vaginal administration) is given as “minimally absorbed” and the “In vitro antifungal activity against isolates” value [1] is given as “fungistatic and fungicidal activity”. For the same molecule, the Protein binding [2] was “about 90%”, the Solubility in ether ([3]; ether) was “sparingly soluble” and the “Solubility in polyethylene glycol 400, ethanol and chloroform” value ([3]; polyethylene glycol 400, ethanol, chloroform) was “very soluble”. For the same molecule, the Solubility in water [3] was “practically insoluble”.

For `CC(=O)OCC(=O)[C@@]1(O)CC[C@H]2[C@@H]3CCC4=CC(=O)CC[C@]4(C)[C@H]3[C@@H](O)C[C@@]21C` [Hydrocortisone Acetate], the “Solubility in alcohol and in chloroform” value ([3]; alcohol, chloroform) is listed as “slightly soluble” and the Solubility in water [3] is listed as “insoluble”.
